system: HIV-1 (H9IIIB strain); experiment: Cell-Based HIV Infection Assay Using a Reporter (MT4-GFP cells); conditions: Human immunodeficiency virus 1, inflection point (IP) of viral growth inhibition; MT4-GFP cells infected with HIV-1 H9IIIB; 50% normal human serum; mean of at least two independent experiments; read-out: Cell Based IP (50% NHS)
Method: Cell-Based HIV Infection Assay Using a Reporter (“Cell-Based”):
MT4-GFP cells contain a stably integrated HIV long terminal repeat promoter directing the transcription of green fluorescent protein (GFP). When HIV infects the cell, GFP is produced and the cell becomes green. MT4-GFP cells (250,000 cells/mL) were bulk-infected with HIV-1 (H9IIIB strain) at low multiplicity of infection (MOI) in RPM 1640 media, supplemented with 10% FBS for 24 h. Cells were then washed once in RPMI 1640 plus 10% FBS and resuspended in RPMI plus 50% normal human serum (NHS). Test compounds were serial-diluted in DMSO using an ECHO liquid dispenser. A control well included a combination of three HIV drugs (an inhibitor of HIV protease, integrase strand transfer and a non-nucleoside reverse transcriptase inhibitor; triple drug). The infected MT4-GFP cells were added to a 384-well poly-D-lysine coated black plate with clear bottom in which the diluted test compounds were placed. The cells were seeded in the plate at 8,000 cells per well and the final DMSO concentration was 0.4%. Infected cells were quantified at both 24 and 48 h post incubation using an Acumen eX3 plate reader. Viral reproductive ratio (R0) was determined using the number of infected cells at 48 h divided by the number of infected cells at 24 h. Percent viral growth inhibition was calculated by [1−(R−Rtripledrug)/(RDMSO−Rtripledrug)]*100. Compound potency inflection point (IP) was determined with use of a 4-parameter dose response curve analysis.
Data shown in the table reflects the mean of at least two independent experiments.

Point of comparison: `COC(=O)N[C@H](C(=O)Nc1cccc(F)c1CCC1CNC2CCCS(=O)(=O)N1C2)[C@@H](c1ccc(Cl)cc1)C1CCC(F)(F)CC1` (stereo partly drawn) [Example 5, Methyl [(1S,2R)-2-(4-chlorophenyl)-2-(4,4-difluorocyclohexyl)-1-({2-[2-(2,2-dioxido-2-thia-1,7-diazabicyclo[4.3.1]dec-9-yl)ethyl]-3-fluorophenyl}carbamoyl)ethyl]carbamate], EC50 9.4 nM. Against it:
- COC(=O)N[C@H](C(=O)Nc1cccc(F)c1CCC1CNC2CCCS(=O)(=O)N1C2)C(c1ccc(OC)nc1)c1ccc(F)c(F)c1 (stereo in doubt) [Example 68, methyl [(1S,2R)-2-(3,4-difluorophenyl)-1-({2-[2-(2,2-dioxido-2-thia-1,7-diazabicyclo[4.3.1]dec-9-yl)ethyl]-3-fluorophenyl}carbamoyl)-2-(6-methoxypyridin-3-yl)ethyl]carbamate] — within 1.5-fold, 12 nM
- COC(=O)N[C@H](C(=O)Nc1cccc(F)c1CCC1CNC2CCCS(=O)(=O)N1C2)C(c1ccc(Cl)cc1)c1ccc(OC(C)C)nc1 (stereo in doubt) [Example 94, methyl {(1S,2R)-2-(4-chlorophenyl)-1-({2-[2-(2,2-dioxido-2-thia-1,7-diazabicyclo[4.3.1]dec-9-yl)ethyl]-3-fluorophenyl}carbamoyl)-2-[6-(1-methylethoxy)pyridin-3-yl]ethyl}carbamate] — within 1.5-fold, 6.4 nM
- N[C@H](C(=O)Nc1cccc(F)c1CCC1CNC2CCCS(=O)(=O)N1C2)C(c1ccc(Cl)cc1)c1ccnc(C(F)(F)F)c1 (stereo in doubt) [Example 123, (βR)-4-chloro-N-{2-[2-(2,2-dioxido-2-thia-1,7-diazabicyclo[4.3.1]dec-9-yl)ethyl]-3-fluorophenyl}-β-[2-(trifluoromethyl)pyridin-4-yl]-L-phenylalaninamide] — within 1.5-fold, 6.8 nM
- CC(C)Oc1ccc(C(c2ccc(Cl)cc2)[C@H](N)C(=O)Nc2cncc(F)c2CC[C@H]2CN[C@@H]3CCCS(=O)(=O)N2C3)cn1 (stereo in doubt) [Example 240, (2S,3R)-2-amino-3-(4-chlorophenyl)-N-(4-(2-((6R,9S)-2,2-dioxido-2-thia-1,7-diazabicyclo[4.3.1]decan-9-yl)ethyl)-5-fluoropyridin-3-yl)-3-(6-isopropoxypyridin-3-yl)propanamide] — within 1.5-fold, 8.4 nM
- N[C@H](C(=O)Nc1cccc(F)c1CCC1CNC2CCCS(=O)(=O)N1C2)[C@@H](c1ccc(F)cc1)c1cc(F)cc(F)c1 (stereo partly drawn) [Example 1, (βS)—N-{2-[2-(2,2-Dioxido-2-thia-1,7-diazabicyclo[4.3.1]dec-9-yl)ethyl]-3-fluorophenyl}-3,5-difluoro-β-(4-fluorophenyl)-L-phenylalaninamide] — 3.2-fold lower, 2.9 nM
- N[C@H](C(=O)Nc1cccc(F)c1CCC1CNC2CCCS(=O)(=O)N1C2)[C@@H](c1ccc(F)cc1)c1cccc(C(F)(F)F)c1 (stereo partly drawn) [Example 2, (βS)—N-{2-[2-(2,2-Dioxido-2-thia-1,7-diazabicyclo[4.3.1]dec-9-yl)ethyl]-3-fluorophenyl}-β-(4-fluorophenyl)-3-(trifluoromethyl)-L-phenylalaninamide] — within 1.5-fold, 6.7 nM
- COC(=O)N[C@H](C(=O)Nc1cccc(F)c1CCC1CNC2CCCS(=O)(=O)N1C2)[C@@H](c1ccc(Cl)cc1)C(C)C (stereo partly drawn) [Example 3, Methyl [(1S,2R)-2-(4-chlorophenyl)-1-({2-[2-(2,2-dioxido-2-thia-1,7-diazabicyclo[4.3.1]dec-9-yl)ethyl]-3-fluorophenyl}carbamoyl)-3-methylbutyl]carbamate] — within 1.5-fold, 14 nM
- COC(=O)N[C@H](C(=O)Nc1cccc(F)c1CCC1CNC2CCCS(=O)(=O)N1C2)[C@@H](c1ccc(Cl)cc1)C1CC(F)(F)C1 (stereo partly drawn) [Example 4, Methyl [(1S,2R)-2-(4-chlorophenyl)-2-(3,3-difluorocyclobutyl)-1-({2-[2-(2,2-dioxido-2-thia-1,7-diazabicyclo[4.3.1]dec-9-yl)ethyl]-3-fluorophenyl}carbamoyl)ethyl]carbamate] — within 1.5-fold, 13 nM
- CCO[C@H]1CC[C@H]([C@H](c2ccc(Cl)cc2)[C@H](N)C(=O)Nc2cccc(F)c2CC[C@H]2CN[C@@H]3CCCS(=O)(=O)N2C3)CC1 [Example 6, (2S,3R)-2-amino-3-(4-chlorophenyl)-N-(2-(2-((6R,9S)-2,2-dioxido-2-thia-1,7-diazabicyclo[4.3.1]decan-9-yl)ethyl)-3-fluorophenyl)-3-((1r,4R)-4-ethoxycyclohexyl)propanamide] — 1.5-fold lower, 6.2 nM
- CO[C@H]1CC[C@H]([C@H](c2ccc(Cl)cc2)[C@H](N)C(=O)Nc2cccc(F)c2CC[C@H]2CN[C@@H]3CCCS(=O)(=O)N2C3)CC1 [Example 7, (βR)-4-Chloro-N-(2-{2-[(6R,9S)-2,2-dioxido-2-thia-1,7-diazabicyclo[4.3.1]dec-9-yl]ethyl}-3-fluorophenyl)-β-[(1r,4R)-4-methoxycyclohexyl]-L-phenylalaninamide] — 3-fold lower, 3.1 nM
- COC(=O)N[C@H](C(=O)Nc1cccc(F)c1CC[C@H]1CN[C@@H]2CCCS(=O)(=O)N1C2)[C@@H](c1ccc(Cl)cc1)[C@H]1CCO[C@@H](CC(F)(F)F)C1 [Example 8, Methyl ((1R,2S)-1-(4-chlorophenyl)-3-((2-(2-((6R,9S)-2,2-dioxido-2-thia-1,7-diazabicyclo[4.3.1]decan-9-yl)ethyl)-3-fluorophenyl)amino)-3-oxo-1-((2R,4S)-2-(2,2,2-trifluoroethyl)tetrahydro-2H-pyran-4-yl)propan-2-yl)carbamate] — within 1.5-fold, 8.7 nM
- COC(=O)N[C@H](C(=O)Nc1cccc(F)c1CCC1CNC2CCCS(=O)(=O)N1C2)[C@H](CCC1CCOCC1)c1ccc(Cl)c(F)c1 (stereo partly drawn) [Example 9, Methyl [(1S,2R)-2-(4-chloro-3-fluorophenyl)-1-({2-[2-(2,2-dioxido-2-thia-1,7-diazabicyclo[4.3.1]dec-9-yl)ethyl]-3-fluorophenyl}carbamoyl)-4-(tetrahydro-2H-pyran-4-yl)butyl]carbamate] — within 1.5-fold, 7.1 nM
- CC1(C)C[C@@H]([C@H](c2ccc(Cl)cc2)[C@H](N)C(=O)Nc2cccc(F)c2CC[C@H]2CN[C@@H]3CCCS(=O)(=O)N2C3)CCO1 [Example 10, (2S,3R)-2-amino-3-(4-chlorophenyl)-3-((S)-2,2-dimethyltetrahydro-2H-pyran-4-yl)-N-(2-(2-((6R,9S)-2,2-dioxido-2-thia-1,7-diazabicyclo[4.3.1]decan-9-yl)ethyl)-3-fluorophenyl)propanamide] — within 1.5-fold, 6.7 nM
- CC(C)Oc1ccc([C@H](c2ccc(Cl)cc2)[C@H](N)C(=O)Nc2cccc(F)c2CCC2CNC3CCCS(=O)(=O)N2C3)cn1 (stereo partly drawn) [Example 11, (βS)-4-Chloro-N-{2-[2-(2,2-dioxido-2-thia-1,7-diazabicyclo[4.3.1]dec-9-yl)ethyl]-3-fluorophenyl}-β-[6-(1-methylethoxy)pyridin-3-yl]-L-phenylalaninamide] — 2.4-fold lower, 4 nM
- CC(F)(F)c1ccc([C@H](c2ccc(Cl)cc2)[C@H](N)C(=O)Nc2cccc(F)c2CC[C@H]2CN[C@@H]3CCCS(=O)(=O)N2C3)cn1 [Example 12, (2S,3S)-2-amino-3-(4-chlorophenyl)-3-(6-(1,1-difluoroethyl)pyridin-3-yl)-N-(2-(2-((6R,9S)-2,2-dioxido-2-thia-1,7-diazabicyclo[4.3.1]decan-9-yl)ethyl)-3-fluorophenyl)propanamide] — 1.6-fold lower, 5.9 nM
- COC(=O)N[C@H](C(=O)Nc1cccc(F)c1CC[C@H]1CN[C@@H]2CCCS(=O)(=O)N1C2)[C@]1(c2ccc(Cl)cc2)CC[C@@H](OC)CC1 [Example 13, Methyl {(1S)-1-[trans-1-(4-chlorophenyl)-4-methoxycyclohexyl]-2-[(2-{2-[(6R,9S)-2,2-dioxido-2-thia-1,7-diazabicyclo[4.3.1]dec-9-yl]ethyl}-3-fluorophenyl)amino]-2-oxoethyl}carbamate] — within 1.5-fold, 7.6 nM
- COC(=O)N1CCC(c2ccc(Cl)cc2)([C@H](N)C(=O)Nc2cccc(F)c2CC[C@H]2CN[C@@H]3CCCS(=O)(=O)N2C3)CC1 [Example 14, Methyl 4-{(1S)-1-amino-2-[(2-{2-[(6R,9S)-2,2-dioxido-2-thia-1,7-diazabicyclo[4.3.1]dec-9-yl]ethyl}-3-fluorophenyl)amino]-2-oxoethyl}-4-(4-chlorophenyl)piperidine-1-carboxylate] — within 1.5-fold, 14 nM
- C[C@@H]1C[C@H](C(c2ccc(F)cc2)[C@H](N)C(=O)Nc2cccc(F)c2CC[C@H]2CN[C@@H]3CCCS(=O)(=O)N2C3)C[C@H](C)O1 (stereo partly drawn) [Example 15, β-[(2R,4r,6S)-2,6-Dimethyltetrahydro-2H-pyran-4-yl]-N-(2-{2-[(6R,9S)-2,2-dioxido-2-thia-1,7-diazabicyclo[4.3.1]dec-9-yl]ethyl}-3-fluorophenyl)-4-fluoro-L-phenylalaninamide] — within 1.5-fold, 8.8 nM

same assay, conditions: inflection point (IP) of viral growth inhibition; MT4-GFP cells infected with HIV-1 H9IIIB; 50% normal human serum; mean of at least two independent experiments; read-out: Cell Based IP (50% NHS)

`COC(=O)N[C@H](C(=O)Nc1cncc(F)c1CC[C@H]1CN[C@@H]2CCCS(=O)(=O)N1C2)C1(c2ccc(Cl)cc2)CCC(C(F)(F)F)CC1` (relative stereo) [Example 270, methyl {(1S)-1-[cis-1-(4-chlorophenyl)-4-(trifluoromethyl)cyclohexyl]-2-[(4-{2-[(6R,9S)-2,2-dioxido-2-thia-1,7-diazabicyclo[4.3.1]dec-9-yl]ethyl}-5-fluoropyridin-3-yl)amino]-2-oxoethyl}carbamate] showed an EC50 of 20 nM.

Source: US10138255B2, “Piperazine derivatives as HIV protease inhibitors” (Merck Sharp & Dohme Corp., priority 2014, dated 2018)
